Data on five molecules can be found in patent US20210275506A1, “COMPOSITIONS AND METHODS OF TREATMENT” (Blueberry Therapeutics Limited, priority 2018, published 2021).

Where two headings read alike, the source gives them in different places.

Data set [1] is described as follows: Solubility of the APIs in ethanol and water vehicles. As to conditions: for Solubility in words: water and ethanol; for solubility: water and ethanol vehicles, read-out: Solubility, 10 mg/ml API solution. Type of data set: physicochemical.
Data set [2] concerns P. acnes. The experiment in a line: Liquid MIC assay in 96 well plates. The format is cell-based, Pseudomonas acnes. The conditions noted are these: Diclofenac 50-500 ug/ml. On the procedure: (§1) The API's formulated with Nanocin were tested on 2 bacterial strains associated with acne. Staphylococcus epidermidis (S. epidermidis) and the anaerobic Pseudomonas acnes (P. acnes). Two types of assay were performed: (i) a bacterial lawn assay where the formulation was pipetted onto a Whatman filter disc and then added to a dried lawn of the bacteria growing on agar; and also, (ii) a liquid minimum inhibitory concentration (MIC) assay, where the bacteria were grown in 96 well plates.
(§2) However, results from both were reliable.

The test system of data set [3] is IL-8. Kind of data set: Inflammation assay: IL-8 release of LPS-stimulated THP-1 cells. The format is cell-based, human. The conditions noted are these: for potency at inhibiting the LPS inflammatory response, in words / MIC for inhibiting the LPS inflammatory response (IL-8): dose range 0-30 ug/ml; for MIC for inhibiting the LPS inflammatory response (IL-8) / IL-8 release, in words: 24 h; for IL-8 release, in words: 30 ug/ml API, 100 ug/ml Nanocin.

Data set [4] concerns TNF-α. The experiment in a line: Inflammation assay: TNF-α release of LPS-stimulated THP-1 cells. The format is cell-based, human. The conditions noted are these: final concentration 1 or 0.1 ug/ml. The protocol:
The release of cytokines (looking particularly at those associated with acne inflammation-TNF-α, IL-8, IL-1α) after stimulation with lipopolysaccharide (LPS) is a valid model system to test compounds for potential anti-inflammatory effects (Reference 1)
To standardise conditions for the assay, a LPS dose (0-1 ug/ml) was investigated on TNF-α, IL-8 and IL-1α response, over a time period from 2,4 and 24 hours.
A 1:1 mg/ml (Nanocin:API) was initially formulated in 20% ethanol and the stock formulation was then diluted down with serum free media and tested at a final concentration of 1 or 0.1 ug/ml.

In data set [5] the test system is S. epidermidis. Kind of data set: Liquid MIC assay in 96 well plates. The conditions noted are these: Diclofenac 50-500 ug/ml. The format is cell-based, Staphylococcus epidermidis. On the procedure: as §1, §2
Data set [6] deals with P. acnes. The experiment in a line: Bacterial lawn assay with soaked filter discs. The format is cell-based, Pseudomonas acnes. As to conditions: Nanocin 1 mg/ml, Diclofenac 0.1-1 mg/ml. On the procedure: as §1, with “plates. The bacterial lawn assay was much faster and easier to grow with the S. epidermidis as it was under aerobic conditions. The P. acnes growth on the agar plates was slower and difficult to capture on a camera (although possible to view by eye; see FIGS. 5c and 5d).” for “plates.”

The nature of data set [7]: DLS particle size (z-average) and polydispersity index of API:Nanocin formulations. Type of data set: physicochemical. Details: z-average: unit not given here.
The nature of data set [8]: In vitro permeation, Franz cell, ToF-SIMS of cross sections and tape strips. The conditions noted are these: for permeation, key findings: all methods. The format is in vitro ADME, pig.
The mark [9] stands for this setting: aqueous with cosolvent or surfactant or cyclodextrin, 5% ethanol.
The mark [10] stands for this setting: aqueous with cosolvent or surfactant or cyclodextrin, 10% ethanol.
Where [11] appears, read: aqueous with cosolvent or surfactant or cyclodextrin, 15% ethanol.
Setting [12] is: aqueous with cosolvent or surfactant or cyclodextrin, 20% ethanol.
The mark [13] stands for this setting: aqueous with cosolvent or surfactant or cyclodextrin, 30% ethanol.

For `Cc1ccc(-c2cc(C(F)(F)F)nn2-c2ccc(S(N)(=O)=O)cc2)cc1` [Celecoxib], the Solubility in words entry in data set [1] was “insolubility”. Moreover, the solubility in data set [1] (setting [9]), in data set [1] (setting [10]), in data set [1] (setting [11]), in data set [1] (setting [12]), in data set [1] (setting [13]) and in data set [1] (water) was less than 10000 µg/mL each time.

Regarding `O=C(O)Cc1ccccc1Nc1c(Cl)cccc1Cl` [Diclofenac], the “bacterial growth inhibition / anti-bacterial activity of API alone” value in data set [2] is recorded as “did not exhibit any bacterial growth inhibition”. The Solubility in words result in data set [1] was “most soluble”. For the same molecule, the solubility in data set [1] (setting [10]), in data set [1] (setting [11]), in data set [1] (setting [12]), in data set [1] (setting [13]) and in data set [1] (water) was more than 10000 µg/mL in each case. Besides, the “potency at inhibiting the LPS inflammatory response, in words” value in data set [3] is “more potent than Ibuprofen”. Further, the “MIC for inhibiting the LPS inflammatory response (IL-8)” value in data set [3] turned out to be 1 µg/mL. Moreover, the “LPS-stimulated IL-8 response, in words” value in data set [3] (final concentration 1 or 0.1 ug/ml) is on record as “reduced the LPS-stimulated inflammatory response”. For the same molecule, the “LPS-stimulated TNF-α response, in words” value in data set [4] is given as “reduced the LPS-stimulated inflammatory response”. In data set [5], the “bacterial growth inhibition by API alone” value was “did not exhibit any bacterial growth inhibition”. In data set [6], the “inhibition of bacterial growth (halo around disc)” value is “not seen”. Further, the PDI in data set [7] (0.33:1 mg/ml API:N) turned out to be 0.251; in data set [7] (1:1 mg/ml API:N), 0.817. In addition, the “intensity of diclofenac salt ion markers in stratum corneum” value in data set [8] (ToF-SIMS cross sections, 1 mg/ml Diclofenac) is listed as “slight elevation”. In data set [8] (ToF-SIMS tape strips, 1 mg/ml Diclofenac), the “diclofenac salt ion markers in tape strips 1-3 (permeation into top layers of stratum corneum)” value was “does not and none”.

With `CC(C)Cc1ccc(C(C)C(=O)O)cc1` (centres unmarked) [Ibuprofen], in data set [1], the Solubility in words result is “better solubility in water and ethanol”. The “IL-8 release, in words” value in data set [3] is “very little effect on reducing the IL-8 release”. Besides, in data set [7] (0.33:1 mg/ml API:N), the PDI is 0.289 and the z-average is listed as 194.1. In data set [7] (1:1 mg/ml API:N), this molecule showed a PDI of 0.34 and a z-average of 311.9. The “permeation, key findings” value in data set [8] is “no evidence”.

`CO[C@H]1C[C@@H]2CC[C@@H](C)[C@@](O)(O2)C(=O)C(=O)N2CCCC[C@H]2C(=O)O[C@H]([C@H](C)C[C@@H]2CC[C@@H](O)[C@H](OC)C2)CC(=O)[C@H](C)/C=C(\C)[C@@H](O)[C@@H](OC)C(=O)[C@H](C)C[C@H](C)/C=C/C=C/C=C/1C` [Rapamycin]: the solubility in data set [1] (setting [9]) is less than 10000 µg/mL; in data set [1] (setting [10]), less than 10000 µg/mL; in data set [1] (setting [11]) it was less than 10000 µg/mL; in data set [1] (setting [12]), less than 10000 µg/mL; in data set [1] (setting [13]), more than 10000 µg/mL; in data set [1] (water), less than 10000 µg/mL. The “MIC for inhibiting the LPS inflammatory response (IL-8)” value in data set [3] amounted to 1 µg/mL. The “permeation, key findings” value in data set [8] is on record as “no evidence”.

With `C=CC[C@@H]1/C=C(\C)C[C@H](C)C[C@H](OC)[C@H]2O[C@@](O)(C(=O)C(=O)N3CCCC[C@H]3C(=O)O[C@H](/C(C)=C/[C@@H]3CC[C@@H](O)[C@H](OC)C3)[C@H](C)[C@@H](O)CC1=O)[C@H](C)C[C@@H]2OC` [Tacrolimus], the “Solubility, 10 mg/ml API solution” value in data set [1] (10% ethanol) is given as “x(better)”. The solubility in data set [1] (setting [9]) is less than 10000 µg/mL; in data set [1] (setting [11]), more than 10000 µg/mL; in data set [1] (setting [12]), more than 10000 µg/mL; in data set [1] (setting [13]), more than 10000 µg/mL; in data set [1] (water) it was less than 10000 µg/mL. For the same molecule, the “IL-8 release, in words” value in data set [3] is given as “more effective anti-inflammatory”. Further, in data set [3], the “potency at inhibiting the LPS inflammatory response, in words” value is listed as “more potent than Ibuprofen”. Moreover, in data set [3], the “MIC for inhibiting the LPS inflammatory response (IL-8)” value turned out to be 0.3 µg/mL. Also, the values for the PDI in data set [7] (0.33:1 mg/ml API:N) and in data set [7] (1:1 mg/ml API:N) were 0.332 and 1, respectively. Further, the z-average in data set [7] (0.33:1 mg/ml API:N) came out at 41.54; in data set [7] (1:1 mg/ml API:N), 277.1. Besides, in data set [8], the “permeation, key findings” value is listed as “no evidence”.
